Laboratory results published in US20110071150A1 (priority 2009, published 2011).

Tested on: Jurkat IL-2 Production
Assay: Jurkat IL-2 Production Assay
Assay type: cell-based
Details: Homo sapiens, Jurkat cell (ATCC), 18-20 h incubation, PHA 5 μg/mL with 1% FBS, or PMA/Ionomycin with 30% FBS (table does not say which)
Summary of the method: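 Jurkat cells were exposed to compound (0.25% DMSO final) for 10 min, then stimulated for 18–20 h at 37 °C. The 1% FBS condition used 5 μg/mL PHA; the high-serum condition (30% FBS) used 50 ng/mL PMA plus 500 ng/mL ionomycin. IC50 was derived from IL-2 production.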

IC50	SMILES
110 nM	CCn1nc(C(F)(F)F)cc1-c1ccc2c(c1)CC(C1CCCCC1)N2 (stereo not drawn) [Example 197]
95 nM	CCn1nc(C(F)(F)F)cc1-c1ccc2[nH]c(C3CCOCC3)cc2c1 [Example 198, 5-(1-ethyl-3-(trifluoromethyl)-1H-pyrazol-5-yl)-2-(tetrahydro-2H-pyran-4-yl)-1H-indole]
86 nM	CCn1nc(C(F)(F)F)cc1-c1ccc2[nH]c(C3CCCOC3)cc2c1 (stereo not drawn) [Example 199, 5-(1-ethyl-3-(trifluoromethyl)-1H-pyrazol-5-yl)-2-(tetrahydro-2H-pyran-3-yl)-1H-indole]
220 nM	CCn1nc(C(F)(F)F)cc1-c1ccc2[nH]c(C3CCN(C(C)=O)CC3)cc2c1 [Example 200, 1-(4-(5-(1-ethyl-3-(trifluoromethyl)-1H-pyrazol-5-yl)-1H-indol-2-yl)piperidin-1-yl)ethanone]
35 nM	COc1cc(F)c(-c2cc3cc(-c4cc(C(F)(F)F)nn4C)ccc3[nH]2)c(Cl)c1 [Example 201, 2-(2-chloro-6-fluoro-4-methoxyphenyl)-5-(1-methyl-3-(trifluoromethyl)-1H-pyrazol-5-yl)-1H-indole]
57 nM	COc1cc(F)c(-c2cc3cc(-c4ccc(C#N)cc4C)ccc3[nH]2)c(Cl)c1 [Example 202, 4-(2-(2-chloro-6-fluoro-4-methoxyphenyl)-1H-indol-5-yl)-3-methylbenzonitrile]
31 nM	CCn1nc(C(F)(F)F)cc1-c1ccc2[nH]c(-c3c(F)cc(OC)cc3Cl)cc2c1 [Example 203, 2-(2-chloro-6-fluoro-4-methoxyphenyl)-5-(1-ethyl-3-(trifluoromethyl)-1H-pyrazol-5-yl)-1H-indole]
63 nM	CCn1nc(-c2cnccn2)cc1-c1ccc2[nH]c(-c3c(F)cccc3F)cc2c1 [Example 204, 2-(2,6-difluorophenyl)-5-(1-ethyl-3-(pyrazin-2-yl)-1H-pyrazol-5-yl)-1H-indole]
24 nM	CCn1nc(-c2cccnc2)nc1-c1ccc2[nH]c(-c3c(F)cccc3F)cc2c1 [Example 205, 2-(2,6-Difluoro-phenyl)-5-(2-ethyl-5-pyridin-3-yl-2H-[1,2,4]triazol-3-yl)-1H-indole]
51 nM	Cc1sc(-c2cnccn2)nc1-c1ccc2[nH]c(-c3c(F)cccc3F)cc2c1 [Example 206, 2-(2,6-Difluoro-phenyl)-5-(5-methyl-2-pyrazin-2-yl-thiazol-4-yl)-1H-indole]
26 nM	CCc1sc(-c2cccnc2)nc1-c1ccc2[nH]c(-c3c(F)cccc3F)cc2c1 [Example 207, 2-(2,6-Difluoro-phenyl)-5-(5-ethyl-2-pyridin-3-yl-thiazol-4-yl)-1H-indole]
97 nM	Cc1cc(-c2ncco2)ncc1-c1ccc2[nH]c(-c3c(F)cccc3F)cc2c1 [Example 208, 2-(2,6-Difluoro-phenyl)-5-(4-methyl-6-oxazol-2-yl-pyridin-3-yl)-1H-indole]
54 nM	Cc1cc(-c2cnc(N)nc2)ncc1-c1ccc2[nH]c(-c3c(F)cccc3F)cc2c1 [Example 209, 5-{5-[2-(2,6-Difluoro-phenyl)-1H-indol-5-yl]-4-methyl-pyridin-2-yl}-pyrimidin-2-ylamine]
60 nM	Cc1cc(-c2cncnc2)ncc1-c1ccc2[nH]c(-c3c(F)cccc3F)cc2c1 [Example 210, 2-(2,6-Difluoro-phenyl)-5-(4-methyl-6-pyrimidin-5-yl-pyridin-3-yl)-1H-indole]
124 nM	CCn1nc(-c2cnccn2)cc1-c1ccc2[nH]c(-c3cnccc3C)cc2c1 [Example 211, 5-(2-Ethyl-5-pyrazin-2-yl-2H-pyrazo-1-3-yl)-2-(4-methyl-pyridin-3-yl)-1H-indole]
447 nM	Cc1cc(C#N)ncc1-c1ccc2[nH]c(-c3cnccc3C)cc2c1 [Example 212, 4-Methyl-5-[2-(4-methyl-pyridin-3-yl)-1H-indol-5-yl]-pyridine-2-carbonitrile]
105 nM	COc1cc(C#N)ccc1-c1ccc2[nH]c(-c3cnccc3C)cc2c1 [Example 213]

IC50	SMILES
41 nM	Cc1cc(S(C)(=O)=O)ncc1-c1ccc2[nH]c(-c3cnccc3C)cc2c1 [Example 214, 5-(6-Methanesulfonyl-4-methyl-pyridin-3-yl)-2-(4-methyl-pyridin-3-yl)1indole]
235 nM	Cc1cc(Cl)ncc1-c1ccc2[nH]c(-c3cnccc3C)cc2c1 [Example 215, 5-(6-Chloro-4-methyl-pyridin-3-yl)-2-(4-methyl-pyridin-3-yl)-1H-indole]
110 nM	COc1cc(C)c(-c2ccc3[nH]c(-c4cnccc4C)cc3c2)cn1 [Example 216, 5-(6-Methoxy-4-methyl-pyridin-3-yl)-2-(4-methyl-pyridin-3-yl)-1H-indole]
100 nM	Cc1sc(-c2ccccn2)nc1-c1ccc2[nH]c(-c3c(Cl)cccc3Cl)cc2c1 [Example 217, 2-(2,6-Dichloro-phenyl)-5-(5-methyl-2-pyridin-2-yl-thiazol-4-yl)-1H-indole]
110 nM	Cc1cccc(C)c1-c1cc2cc(-c3nc(-c4cccnc4)sc3C)ccc2[nH]1 [Example 218, 2-(2,6-Dimethyl-phenyl)-5-(5-methyl-2-pyridin-3-yl-thiazol-4-yl)-1H-indole]
158 nM	Cc1cccc(C)c1-c1cc2cc(-c3nc(-c4ccccn4)sc3C)ccc2[nH]1 [Example 219, 2-(2,6-Dimethyl-phenyl)-5-(5-methyl-2-pyridin-2-yl-thiazol-4-yl)-1H-indole]
24 nM	Cc1cccc(F)c1-c1cc2cc(-c3nc(-c4cccnc4)sc3C)ccc2[nH]1 [Example 220, 2-(2-Fluoro-6-methyl-phenyl)-5-(5-methyl-2-pyridin-3-yl-thiazol-4-yl)-1H-indole]
95 nM	Cc1cccc(F)c1-c1cc2cc(-c3nc(-c4ccccn4)sc3C)ccc2[nH]1 [Example 221, 2-(2-Fluoro-6-methyl-phenyl)-5-(5-methyl-2-pyridin-2-yl-thiazol-4-yl)-1H-indole]
40 nM	Cn1nc(C(F)(F)F)cc1-c1ccc2[nH]c(C3CCCCC3)cc2c1 [Example 222]
54 nM	Cc1cc(S(=O)(=O)N(C)C)ccc1-c1ccc2[nH]c(C3CCCCC3)cc2c1 [Example 223, 4-(2-cyclohexyl-1H-indol-5-yl)-N,N,3-trimethylbenzenesulfonamide]
83 nM	COc1cc(C)c(-c2ccc3[nH]c(C4CCCCC4)cc3c2)cn1 [Example 224, 2-cyclohexyl-5-(6-methoxy-4-methylpyridin-3-yl)-1H-indole]
153 nM	Cc1cc(S(=O)(=O)N(C)C)ccc1-c1ccc2[nH]c(-c3ccccc3F)c(C)c2c1 [Example 225, 4-(2-(2-fluorophenyl)-3-methyl-1H-indol-5-yl)-N,N,3-trimethylbenzenesulfonamide]
602 nM	Cc1cc(S(=O)(=O)N(C)C)ccc1-c1ccc2[nH]c(-c3ccccc3)c(C)c2c1 [Example 226, N,N,3-trimethyl-4-(3-methyl-2-phenyl-1H-indol-5-yl)benzenesulfonamide]
284 nM	Cc1c(-c2c(F)cccc2F)[nH]c2ccc(-c3cc(C(F)(F)F)nn3C)cc12 [Example 227]
115 nM	Cc1cc(S(=O)(=O)N(C)C)ccc1-c1ccc2[nH]c(-c3c(F)cccc3F)c(C)c2c1 [Example 228, 4-[2-(2,6-Difluoro-phenyl)-3-methyl-1H-indol-5-yl]-3,N,N-trimethyl-benzenesulfonamide]
164 nM	COc1cc(C)c(-c2ccc3[nH]c(-c4c(F)cccc4F)c(C)c3c2)cn1 [Example 229, 2-(2,6-Difluoro-phenyl)-5-(6-methoxy-4-methyl-pyridin-3-yl)-3-methyl-1H-indole]
